Results taken from US4963565A, “In vivo treatment of mycobacterial infections with 6-cyclo octylamino-5,8-quinoline quinone” (priority 1986, dated 1990).

Experiments:
[1] = tested on: Mycobacterium leprae; test: Inhibitory activity against Mycobacterium leprae in the macrophage model (3H thymidine uptake); type: cell-based, M. leprae (in human monocyte derived macrophages); design: Inhibition of 3H thymidine uptake: dose or concentration left out as unconfirmed
Text: The effect of CQQ on Mycobacterium leprae, the causative agent for leprosy, was studied using monocyte derived macrophages obtained from human volunteers.
(§1) Blood from a healthy volunteer was drawn and monocytes were removed and cultured to the macrophage stage. This required about 7 days. The macrophages were then exposed to M. leprae bacilli obtained from biopsy specimens of leprosy patients. One sample was exposed to CQQ, while other samples were exposed to DDS (diaminodiphenyl sulphone), the standard antileprosy drug, or rifampin, at various concentrations. Macrophages were exposed to radiolabelled tritium (^3 H) labeled thymidine, and its uptake was measured using a liquid scintillation counter. A control model of M. leprae exposed macrophages, which was not treated was used as well. The uptake of thymidine is a measure of antimycobacterial activity.

[2] = tested on: M. intracellulare 571-8; test: In vivo effectiveness against chronic M. intracellulare infections in C57Bl/6 mice (Examples IV and V); design: species or system M. intracellulare (host: C57Bl/6 mice)
[3] = tested on: M. intracellulare; details: Gangadharam et al.; cited from earlier work
[4] = tested on: M. tuberculosis H37 Rv; test: In vivo activity against M. tuberculosis infections in C57Bl/6 mice (Example VII); design: species or system M. tuberculosis (host: C57Bl/6 mice)
Protocol: Animal studies were performed using the mouse model. Mice are accepted as excellent experimental models for human mycobacterial diseases. While earlier literature (see review by Youmans etc.), have established C57Bl/6 mice models for in vivo studies with M. tuberculosis, mouse models for experimental M. intracellulare infections were difficult until recently (see review by Gangadharam). The Beige mouse (C57Bl/6/bg/bg) model established by Gangadharam et al is now used for studies with M. intracellulare. In the in vivo studies described below, C57Bl/6 and Beige mice models are used for M. tuberculosis and M. intracellulare infections, respectively.
In chemotherapy studies, various concentrations of CQQ and ansamycin (LM 427), were used. Lung and spleen tissue samples from the animal models were used. "CFU" refers to the "colony forming units" observed when culturing these samples.
In all of the following experiments, spleens and lungs were removed aseptically from the subject animals, at different periods of challenge. The organs were ground and samples of the ground organs were plated in aliquots on 7H11 agar medium. If the bacteria were present, they would grow, forming CFUs. The plates were incubated at 37° C. (with 5% CO2 for M. tuberculosis), and read after three weeks incubation.
CFUs were counted by visual enumeration. If increased magnification was necessary, this was done using a plate microscope.
In this experiment C57Bl/6 mice were infected intravenously with M. tuberculosis H37 Rv strain and one group was treated daily orally with 10 mg/kg of CQQ and the others as untreated infected control.

[5] = tested on: M. tuberculosis H37 Rv; test: In vitro activity against growing culture of M. tuberculosis in Middlebrook 7H9 broth; details: 2 mcg/ml, FIG. 7
[6] = tested on: macrophages; test: Cytotoxicity to macrophages (Table 3 footnote); type: cell-based, human; details: Sample I; 200 NG/ML (cell printed *)
Text: as §1

O=C1C(NC2CCCCCCC2)=CC(=O)c2ncccc21 [CQQ, 6-cyclo octylamino-5,8-quinoline quinone]
Counts per minute (3H thymidine uptake) ([1]; Sample I, 5 NG/ML): 2.4 COUNTS PER MINUTE | Counts per minute (3H thymidine uptake) ([1]; Sample I, 25 NG/ML): 93 COUNTS PER MINUTE | Counts per minute (3H thymidine uptake) ([1]; Sample I, 50 NG/ML): 93 COUNTS PER MINUTE | Counts per minute (3H thymidine uptake) ([1]; Sample I, 100 NG/ML): 84 COUNTS PER MINUTE | Counts per minute (3H thymidine uptake) ([1]; Sample I, CQQ 10 NG/ML): 2.3 COUNTS PER MINUTE | Counts per minute (3H thymidine uptake) ([1]; Sample II, 5 NG/ML): 6 COUNTS PER MINUTE | Counts per minute (3H thymidine uptake) ([1]; Sample II, 25 NG/ML): 69 COUNTS PER MINUTE | Counts per minute (3H thymidine uptake) ([1]; Sample II, 50 NG/ML): 76 COUNTS PER MINUTE | Counts per minute (3H thymidine uptake) ([1]; Sample II, 100 NG/ML): 76 COUNTS PER MINUTE | Counts per minute (3H thymidine uptake) ([1]; Sample II, 200 NG/ML): 91 COUNTS PER MINUTE | Counts per minute (3H thymidine uptake) ([1]; Sample II, CQQ 10 NG/ML): 13 COUNTS PER MINUTE | Counts per minute (3H thymidine uptake) ([1]; Sample III, 5 NG/ML): 2 COUNTS PER MINUTE | Counts per minute (3H thymidine uptake) ([1]; Sample III, 25 NG/ML): 37 COUNTS PER MINUTE | Counts per minute (3H thymidine uptake) ([1]; Sample III, CQQ 10 NG/ML): 2 COUNTS PER MINUTE | Activity with another strain of M. leprae ([1]; another strain): even greater activity | Antileprosy activity ([1]; conclusion from Table 3): considerable antileprosy activity | Inhibition of 3H thymidine uptake ([1]; two strains of M. leprae): significant inhibition | Duration of statistically significant difference vs control ([2]; Example IV, 10 mg/kg (P 0.05)): up to 3 weeks | Reduction in CFU counts in spleen and lungs vs untreated control ([2]; Example IV, 10 mg/kg, followed for 28 days, FIG. 5): considerable reduction in CFU counts both in spleen and lungs | In vivo antimycobacterial activity in the chronic infection ([2]; Example V, FIG. 6): considerable in vivo antimycobacterial activity | In vitro effectiveness against M. intracellulare [3]: effective against M. intracellulare and M. tuberculosis in vitro | Mean CFU counts from spleens and lungs vs untreated controls ([4]; 10 mg/kg daily orally, end of 4 weeks): considerable reduction | Mean colony forming unit (CFU) count, lung ([4]; 10 mg/kg daily orally, end of 4 weeks, control 6.42): 4.21 LOG CFU | Mean colony forming unit (CFU) count, spleen ([4]; 10 mg/kg daily orally, end of 4 weeks, control 6.90): 4.90 LOG CFU | Antituberculosis effectiveness ([4]; conclusion from Table 2): clearly an effective antituberculosis agent | Inhibitory activity against tubercle bacilli [5]: remarkable inhibitory activity | Cytotoxic to macrophages [6]: CYTOTOXIC TO MACROPHAGES
